Where “and” joins values, the source holds several entries; their conditions need not be identical. Equal entries are not always repeated. Inconclusive results and toxic doses are left out. No stated cut-off is given here; in the data, active means T/C of 150% or more; inactive means T/C below 125%.
Tested on: L1210 leukemia ip in BDF1 mice, survival T/C
Assay: NCI In Vivo Anticancer Drug Screen. Data for tumor model L1210 Leukemia (intraperitoneal) in B6D2F1 (BDF1) mice
Conditions: endpoint: mean survival time, higher = longer survival
Summary of the method: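 Mice bearing the transplanted tumor received compound or vehicle. Survival of the treated group was divided by that of the vehicle-treated control group to give the ratio.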

[1] = dose: 100.0 mg/kg/injection, schedule: Q04DX002 (ip), vehicle: Klucel (hydroxypropylcellulose) (HPC)
[2] = dose: 100.0 mg/kg/injection, schedule: Q01DX009 (ip), vehicle: saline with Tween-80
[3] = dose: 100.0 mg/kg/injection, schedule: Q01DX001 (ip), vehicle: saline
[4] = dose: 200.0 mg/kg/injection, schedule: Q01DX001 (ip), vehicle: saline
[5] = dose: 400.0 mg/kg/injection, schedule: Q01DX001 (ip), vehicle: saline
[6] = dose: 100.0 mg/kg/injection, schedule: Q01DX009 (ip), vehicle: Klucel (hydroxypropylcellulose) (HPC)
[7] = dose: 200.0 mg/kg/injection, schedule: Q01DX009 (ip), vehicle: Klucel (hydroxypropylcellulose) (HPC)
[8] = dose: 400.0 mg/kg/injection, schedule: Q01DX009 (ip), vehicle: Klucel (hydroxypropylcellulose) (HPC)
[9] = dose: 400.0 mg/kg/injection, schedule: Q01DX001 (ip), vehicle: carboxymethylcellulose (CMC)
[10] = dose: 100.0 mg/kg/injection, schedule: Q01DX001 (ip), vehicle: carboxymethylcellulose (CMC)
[11] = dose: 100.0 mg/kg/injection, schedule: Q04DX003 (ip), vehicle: saline
[12] = dose: 200.0 mg/kg/injection, schedule: Q01DX001 (ip), vehicle: carboxymethylcellulose (CMC)

Measured: T/C

CCOC(=S)SCC(=O)CSC(=S)OCC
inactive: dose: 25.0 mg/kg/injection, schedule: Q04DX002 (ip), vehicle: Klucel (hydroxypropylcellulose) (HPC) 103 % of control | dose: 50.0 mg/kg/injection, schedule: Q04DX002 (ip), vehicle: Klucel (hydroxypropylcellulose) (HPC) 97 % of control | [1] 110 % of control

CC1=CC(C)(C)Nc2ccc(Cc3ccc4c(c3)C(C)=CC(C)(C)N4)cc21
inactive: [2] 86 % of control | dose: 200.0 mg/kg/injection, schedule: Q01DX009 (ip), vehicle: saline with Tween-80 100 % of control | dose: 400.0 mg/kg/injection, schedule: Q01DX009 (ip), vehicle: saline with Tween-80 92 % of control

C=C(C)COc1ccc(Nc2ccccc2)cc1
inactive: dose: 100.0 mg/kg/injection, schedule: Q01DX001 (ip), vehicle: Klucel (hydroxypropylcellulose) (HPC) 92 % of control | dose: 200.0 mg/kg/injection, schedule: Q01DX001 (ip), vehicle: Klucel (hydroxypropylcellulose) (HPC) 95 % of control | dose: 400.0 mg/kg/injection, schedule: Q01DX001 (ip), vehicle: Klucel (hydroxypropylcellulose) (HPC) 89 % of control

CCC[CH2][Sn]1([CH2]CCC)[O]OC(c2ccc(C(=O)OCC)cc2)[O]1 (stereo not given)
inactive: dose: 6.25 mg/kg/injection, schedule: Q04DX002 (ip), vehicle: other 102 % of control

NC(=S)NS(=O)(=O)c1ccc(N)cc1
inactive: dose: 89.0 mg/kg/injection, schedule: Q01DX001 (ip), vehicle: saline 97 % of control and 98 % of control | [3] 104 % of control | dose: 133.0 mg/kg/injection, schedule: Q01DX001 (ip), vehicle: saline 98 % of control and 104 % of control | [4] 96 % of control and 92 % of control | dose: 300.0 mg/kg/injection, schedule: Q01DX001 (ip), vehicle: saline 93 % of control and 102 % of control | [5] 98 % of control

BrC1(Br)C2CC/C=C\CCC21 (stereo not given)
inactive: dose: 50.0 mg/kg/injection, schedule: Q01DX009 (ip), vehicle: saline with Tween-80 102 % of control | [2] 94 % of control

COC(=O)c1ccc(N(C)Cc2cnc3[nH]c(N)nc(=S)c3n2)cc1
inactive: dose: 50.0 mg/kg/injection, schedule: Q01DX001 (ip), vehicle: saline with Tween-80 100 % of control | dose: 100.0 mg/kg/injection, schedule: Q01DX001 (ip), vehicle: saline with Tween-80 94 % of control | dose: 200.0 mg/kg/injection, schedule: Q01DX001 (ip), vehicle: saline with Tween-80 94 % of control

c1ccc2ncccc2c1
inactive: dose: 100.0 mg/kg/injection, schedule: Q04DX003 (ip), vehicle: Klucel (hydroxypropylcellulose) (HPC) 101 % of control | dose: 200.0 mg/kg/injection, schedule: Q04DX003 (ip), vehicle: Klucel (hydroxypropylcellulose) (HPC) 95 % of control

Cc1ccc(C(C)C)cc1OCO
inactive: dose: 20.0 mg/kg/injection, schedule: Q01DX Z (ip), vehicle: methylcellulose (MC) 98 % of control | dose: 30.0 mg/kg/injection, schedule: Q01DX Z (ip), vehicle: methylcellulose (MC) 105 % of control

CN(C)c1ncnc2c1c(Br)cn2C1OC(CO)C(O)C1O (stereo not given)
inactive: dose: 5.0 mg/kg/injection, schedule: Q01DX001 (ip), vehicle: saline 101 % of control | dose: 10.0 mg/kg/injection, schedule: Q01DX001 (ip), vehicle: saline 102 % of control | dose: 20.0 mg/kg/injection, schedule: Q01DX001 (ip), vehicle: saline 104 % of control | dose: 40.0 mg/kg/injection, schedule: Q01DX001 (ip), vehicle: saline 108 % of control

N#CC(N)=NC1CCC(C2CCC(O)CC2)CC1 (stereo not given)
inactive: [6] 94 % of control | [7] 96 % of control | [8] 96 % of control

CNC(=O)c1c2c(nc3ccccc13)CCCC2
inactive: [3] 102 % of control | [4] 102 % of control | [5] 111 % of control

C/C(=N\N1CCCCCC1)c1ccccc1
inactive: dose: 100.0 mg/kg/injection, schedule: Q01DX009 (sc), vehicle: olive oil, sesame oil, peanut oil 95 % of control | dose: 100.0 mg/kg/injection, schedule: Q04DX003 (sc), vehicle: olive oil, sesame oil, peanut oil 112 % of control | dose: 200.0 mg/kg/injection, schedule: Q01DX009 (sc), vehicle: olive oil, sesame oil, peanut oil 98 % of control | dose: 200.0 mg/kg/injection, schedule: Q04DX003 (sc), vehicle: olive oil, sesame oil, peanut oil 105 % of control | dose: 400.0 mg/kg/injection, schedule: Q01DX009 (sc), vehicle: olive oil, sesame oil, peanut oil 97 % of control | dose: 400.0 mg/kg/injection, schedule: Q04DX003 (sc), vehicle: olive oil, sesame oil, peanut oil 105 % of control

COc1cc(N(CCCl)CCCl)ccc1C=Nc1cc(Cl)ccc1-n1ccnc1
inactive: [1] 95 % of control | dose: 200.0 mg/kg/injection, schedule: Q04DX002 (ip), vehicle: Klucel (hydroxypropylcellulose) (HPC) 95 % of control | dose: 400.0 mg/kg/injection, schedule: Q04DX002 (ip), vehicle: Klucel (hydroxypropylcellulose) (HPC) 87 % of control

CC(=O)Nc1c(Cl)c(Cl)c2[nH]c(=O)c3cc(Cl)ccc3c2c1Cl
inactive: dose: 75.0 mg/kg/injection, schedule: Q01DX001 (ip), vehicle: carboxymethylcellulose (CMC) 87 % of control | dose: 150.0 mg/kg/injection, schedule: Q01DX001 (ip), vehicle: carboxymethylcellulose (CMC) 95 % of control | dose: 300.0 mg/kg/injection, schedule: Q01DX001 (ip), vehicle: carboxymethylcellulose (CMC) 88 % of control

O=c1ccc2cc(OC3OC(CO)C(O)C(O)C3O)c(O)cc2o1 (stereo not given)
inactive: dose: 62.5 mg/kg/injection, schedule: Q01DX015 (ip), vehicle: carboxymethylcellulose (CMC) 95 % of control | dose: 125.0 mg/kg/injection, schedule: Q01DX015 (ip), vehicle: carboxymethylcellulose (CMC) 105 % of control | dose: 250.0 mg/kg/injection, schedule: Q01DX015 (ip), vehicle: carboxymethylcellulose (CMC) 100 % of control | [9] 111 % of control | dose: 600.0 mg/kg/injection, schedule: Q01DX001 (ip), vehicle: carboxymethylcellulose (CMC) 90 % of control | dose: 800.0 mg/kg/injection, schedule: Q01DX001 (ip), vehicle: carboxymethylcellulose (CMC) 92 % of control | dose: 1000.0 mg/kg/injection, schedule: Q01DX001 (ip), vehicle: carboxymethylcellulose (CMC) 101 % of control

Cc1ccc(S(=O)(=O)N/N=C/Cc2ccccc2)cc1
inactive: dose: 100.0 mg/kg/injection, schedule: Q04DX002 (ip), vehicle: gum acacia 100 % of control | dose: 200.0 mg/kg/injection, schedule: Q04DX002 (ip), vehicle: gum acacia 100 % of control | dose: 400.0 mg/kg/injection, schedule: Q04DX002 (ip), vehicle: gum acacia 100 % of control

OCC1(CO)CC=CCC1
inactive: dose: 25.0 mg/kg/injection, schedule: Q04DX003 (ip), vehicle: saline 95 % of control | dose: 50.0 mg/kg/injection, schedule: Q04DX003 (ip), vehicle: saline 105 % of control | [10] 103 % of control | [11] 94 % of control and 89 % of control | [12] 95 % of control | [9] 103 % of control

O=S(=O)(OCC1CO1)c1ccc(Cl)c(Cl)c1 (stereo not given)
inactive: dose: 100.0 mg/kg/injection, schedule: Q01DX008 (ip), vehicle: Klucel (hydroxypropylcellulose) (HPC) 96 % of control | dose: 200.0 mg/kg/injection, schedule: Q01DX008 (ip), vehicle: Klucel (hydroxypropylcellulose) (HPC) 102 % of control | dose: 400.0 mg/kg/injection, schedule: Q01DX008 (ip), vehicle: Klucel (hydroxypropylcellulose) (HPC) 106 % of control

CCOC(C)C1C2CCCC(C)C21 (stereo not given)
inactive: [11] 102 % of control | dose: 200.0 mg/kg/injection, schedule: Q04DX003 (ip), vehicle: saline 96 % of control | dose: 400.0 mg/kg/injection, schedule: Q04DX003 (ip), vehicle: saline 93 % of control

N#CC1(Nc2ccc(S(N)(=O)=O)cc2)CCCC1
inactive: dose: 50.0 mg/kg/injection, schedule: Q01DX001 (ip), vehicle: carboxymethylcellulose (CMC) 95 % of control | [10] 93 % of control | [12] 98 % of control

CC1(C)C=CN2C(=O)C3=CCCN3C(=O)C2CC12Nc1ccccc1C2=O (stereo not given)
inactive: dose: 100.0 mg/kg/injection, schedule: Q04DX003 (ip), vehicle: other 111 % of control | dose: 200.0 mg/kg/injection, schedule: Q04DX003 (ip), vehicle: other 103 % of control | dose: 400.0 mg/kg/injection, schedule: Q04DX003 (ip), vehicle: other 93 % of control

CC(C)CCOC(OCCC(C)C)OCCC(C)C
inactive: [3] 100 % of control | [4] 97 % of control | [5] 105 % of control

O=c1[nH]nc(-c2ccccc2)c2ccccc12
inactive: dose: 50.0 mg/kg/injection, schedule: Q01DX001 (ip), vehicle: saline 100 % of control | [3] 97 % of control | [4] 93 % of control | [5] 100 % of control

COC(=O)C1CC(C(N)=O)CC1OC(C)=O (stereo not given)
inactive: [6] 100 % of control | [7] 93 % of control | [8] 98 % of control
